Data taken from ChEMBL document CHEMBL1153666, “K-13 and of4949: Evaluation of key partial structures and pharmacophore delineation” (Bioorg Med Chem Lett, 1993).
Calls of active or inactive are those of the source. No cut-off for these calls is given here.

Legend:
[1] = target: T1, Aminopeptidase B (Rattus norvegicus) (UniProt O09175); assay: Percent inhibition of rat liver aminopeptidase B by 230 ug/mL was determined
T1 sequence (whole entry): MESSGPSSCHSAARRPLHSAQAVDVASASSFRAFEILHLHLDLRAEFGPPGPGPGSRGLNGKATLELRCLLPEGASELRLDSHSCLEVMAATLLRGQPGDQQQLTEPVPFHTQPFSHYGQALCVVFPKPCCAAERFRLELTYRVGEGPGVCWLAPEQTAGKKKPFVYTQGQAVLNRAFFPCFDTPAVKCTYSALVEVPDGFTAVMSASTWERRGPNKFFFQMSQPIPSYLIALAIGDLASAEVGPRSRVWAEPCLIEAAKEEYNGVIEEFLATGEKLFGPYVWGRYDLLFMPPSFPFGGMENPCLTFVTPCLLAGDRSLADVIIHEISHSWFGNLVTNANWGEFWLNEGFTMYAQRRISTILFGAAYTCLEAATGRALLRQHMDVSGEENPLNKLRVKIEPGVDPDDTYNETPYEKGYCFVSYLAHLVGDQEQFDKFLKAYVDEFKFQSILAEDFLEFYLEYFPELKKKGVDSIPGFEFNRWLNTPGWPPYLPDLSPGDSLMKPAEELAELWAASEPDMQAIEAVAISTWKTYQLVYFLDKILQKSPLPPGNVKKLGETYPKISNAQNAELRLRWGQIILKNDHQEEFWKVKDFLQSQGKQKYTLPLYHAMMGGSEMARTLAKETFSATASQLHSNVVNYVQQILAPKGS

[2] = target: T2, Angiotensin-converting enzyme (Oryctolagus cuniculus, UniProt P12822); assay: Tested for inhibitory constant against Angiotensin I converting enzyme
T2 sequence (P12822 whole entry): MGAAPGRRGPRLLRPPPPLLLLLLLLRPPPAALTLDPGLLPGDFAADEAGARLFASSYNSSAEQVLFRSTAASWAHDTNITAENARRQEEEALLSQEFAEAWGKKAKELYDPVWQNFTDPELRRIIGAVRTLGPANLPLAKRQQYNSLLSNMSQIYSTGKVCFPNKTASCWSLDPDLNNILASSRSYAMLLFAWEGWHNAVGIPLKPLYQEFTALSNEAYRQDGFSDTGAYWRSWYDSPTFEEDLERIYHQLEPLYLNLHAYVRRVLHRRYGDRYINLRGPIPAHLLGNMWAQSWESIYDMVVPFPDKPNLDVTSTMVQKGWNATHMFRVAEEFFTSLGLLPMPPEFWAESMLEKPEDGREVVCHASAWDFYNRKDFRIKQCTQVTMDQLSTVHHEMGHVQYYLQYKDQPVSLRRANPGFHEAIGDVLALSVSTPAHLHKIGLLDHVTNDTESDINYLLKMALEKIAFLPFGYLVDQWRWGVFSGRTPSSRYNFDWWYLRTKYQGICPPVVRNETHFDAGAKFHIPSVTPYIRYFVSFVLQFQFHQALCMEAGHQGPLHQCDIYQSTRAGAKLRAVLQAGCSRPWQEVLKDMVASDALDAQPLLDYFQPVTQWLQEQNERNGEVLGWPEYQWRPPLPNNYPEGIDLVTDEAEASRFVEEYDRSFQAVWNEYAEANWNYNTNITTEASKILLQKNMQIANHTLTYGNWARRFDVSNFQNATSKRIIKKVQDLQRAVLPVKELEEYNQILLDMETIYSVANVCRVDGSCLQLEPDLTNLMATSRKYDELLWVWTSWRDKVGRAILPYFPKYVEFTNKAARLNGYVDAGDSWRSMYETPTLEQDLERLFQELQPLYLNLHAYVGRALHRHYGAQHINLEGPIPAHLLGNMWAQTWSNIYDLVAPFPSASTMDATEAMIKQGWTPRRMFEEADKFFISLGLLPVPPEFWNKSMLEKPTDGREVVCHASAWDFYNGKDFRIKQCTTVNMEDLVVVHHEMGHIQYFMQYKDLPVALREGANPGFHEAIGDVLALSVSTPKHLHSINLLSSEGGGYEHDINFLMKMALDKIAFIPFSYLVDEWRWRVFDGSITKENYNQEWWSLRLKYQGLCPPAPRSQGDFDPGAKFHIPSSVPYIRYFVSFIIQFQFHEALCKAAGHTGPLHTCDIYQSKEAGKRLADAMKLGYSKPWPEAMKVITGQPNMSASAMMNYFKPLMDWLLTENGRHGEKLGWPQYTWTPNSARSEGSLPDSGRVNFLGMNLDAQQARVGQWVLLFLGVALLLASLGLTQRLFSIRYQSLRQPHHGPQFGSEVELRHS

[3] = system: P388; assay: Tested in vitro for concentration that causes 50% inhibition of P388 leukemic cell growth; assay type: functional, cell-based; conditions: Mus musculus
[4] = target: T2, Angiotensin-converting enzyme; assay: Tested for inhibitory concentration that causes inhibition of Angiotensin I converting enzyme obtained from rabbit lung acetone powder extract); conditions: read-out: I50 (converted)
[5] = target: T2, Angiotensin-converting enzyme; assay: Inhibitory concentration against Angiotensin I converting enzyme obtained from rabbit lung acetone powder extract; conditions: read-out: I50 (converted)
[6] = target: T3, Angiotensin-converting enzyme (Oryctolagus cuniculus) (UniProt P12822); assay: Inhibition of Angiotensin I converting enzyme from rabbit lung acetone powder extract; Inactive
T3 sequence (whole entry): T2 sequence (P12822 whole entry)

[7] = target: T3, Angiotensin-converting enzyme (Oryctolagus cuniculus); assay: Tested for inhibitory concentration that causes inhibition of Angiotensin I converting enzyme obtained from rabbit lung acetone powder extract; conditions: concentration not given here
[8] = target: T1, Aminopeptidase B (Rattus norvegicus); assay: Tested for percent inhibitory concentration that cause inhibition of rat liver aminopeptidase B at 220 ug/mL
[9] = target: T3, Angiotensin-converting enzyme (Oryctolagus cuniculus); assay: Tested for percent inhibitory concentration that cause inhibition of Angiotensin I converting enzyme obtained from rabbit lung acetone powder extract at 100 ug/mL
[10] = target: T4, Aminopeptidase B (Rattus norvegicus, UniProt O09175); assay: Tested for concentration that causes 50% inhibition of rat liver aminopeptidase B, was determined; conditions: read-out: I50 (converted)
T4 sequence (O09175 whole entry): T1 sequence (whole entry)

[11] = system: P388; assay: Tested for concentration that causes 50% inhibition of P388 leukemic cell growth, was determined in vitro; assay type: functional, cell-based; conditions: Mus musculus
[12] = target: T3, Angiotensin-converting enzyme (Oryctolagus cuniculus); assay: Tested for percent inhibitory concentration that cause inhibition of Angiotensin I converting enzyme obtained from rabbit lung acetone powder extract at 200 ug/mL
[13] = target: T4, Aminopeptidase B; assay: Tested for concentration that causes 50% inhibition of rat liver aminopeptidase B, was determined; Inactive

Row | SMILES | IC50 [5] | inhibition [6] | further results
1 | CC(=O)N[C@@H]1Cc2ccc(cc2)Oc2cc(ccc2O)C[C@H](C(=O)O)NC(=O)[C@H](Cc2ccc(O)cc2)NC1=O |  |  | inhibition [1]: 13%; Ki [2]: 350 nM; IC50 [3]: > 10 µg/mL; IC50 [4]: 183 nM
2 | NC(=O)C[C@@H]1NC(=O)CCc2ccc(O)c(c2)Oc2ccc(cc2)CCNC1=O | 528 µM |  | 
3 | COC(=O)CCc1cccc(Oc2ccc(CCNC(=O)[C@H](CC(N)=O)NC(=O)OC(C)(C)C)cc2)c1 |  | inactive | 
4 | COc1ccc2cc1Oc1ccc(cc1)C[C@H](NC(C)=O)C(=O)N[C@@H](Cc1ccc(O)cc1)C(=O)N[C@H](C(=O)O)C2 | 5.34 µM |  | 
5 | NC(=O)C[C@@H]1NC(=O)CCc2cccc(c2)Oc2ccc(cc2)CCNC1=O |  | inactive | 
6 | COc1ccc2cc1Oc1ccc(cc1)C[C@@H](C(=O)O)NC(=O)[C@H](CC(N)=O)NC(=O)[C@@H](NC(=O)OCc1ccccc1)C2 | 182 µM |  | 
7 | COc1ccc2cc1Oc1ccc(cc1)CCNC(=O)[C@H](CC(N)=O)NC(=O)CC2 | 535 µM |  | 
8 | COC(=O)[C@@H]1Cc2ccc(cc2)Oc2cc(ccc2O)C[C@H](N)C(=O)N[C@@H](CC(N)=O)C(=O)N1 | 42.5 µM |  | 
9 | O=C1CCc2ccc(cc2)Oc2cccc(c2)CCNC(=O)[C@H](Cc2ccc(O)cc2)N1 |  |  | inhibition [7]: 10%
10 | COC(=O)[C@@H]1Cc2ccc(cc2)Oc2cc(ccc2OC)C[C@H](NC(=O)OCc2ccccc2)C(=O)N[C@@H](CC(N)=O)C(=O)N1 | 210 µM |  | 
11 | COC(=O)CCc1ccc(O)c(Oc2ccc(CCNC(=O)[C@H](CC(N)=O)NC(=O)OC(C)(C)C)cc2)c1 |  | inactive | 
12 | CC(C)(C)OC(=O)N[C@@H](Cc1ccc(Oc2cc(C[C@H](NC(=O)OCc3ccccc3)C(=O)O)ccc2OCc2ccccc2)cc1)C(=O)N[C@H](Cc1ccc(O)cc1)C(=O)O |  | inactive | 
13 | COC(=O)CCc1ccc(OC)c(Oc2ccc(CCNC(=O)[C@H](CC(N)=O)NC(=O)OC(C)(C)C)cc2)c1 |  | inactive | 
14 | COC(=O)[C@H](Cc1ccc(O)c(Oc2ccc(C[C@H](NC(=O)[C@H](CC(N)=O)NC(=O)OC(C)(C)C)C(=O)OC)cc2)c1)NC(=O)OCc1ccccc1 |  | inactive | 
15 | COC(=O)CCc1cccc(Oc2ccc(CCNC(=O)CNC(=O)OC(C)(C)C)cc2)c1 |  | inactive | 
16 | CC(=O)N[C@@H](Cc1ccc(Oc2cc(C[C@H](NC(=O)[C@H](Cc3ccc(O)cc3)NC(=O)OC(C)(C)C)C(=O)O)ccc2OCc2ccccc2)cc1)C(=O)O |  | inactive | 
17 | COC(=O)[C@H]1Cc2ccc(O)c(c2)Oc2ccc(cc2)C[C@H](N)C(=O)N[C@@H](Cc2ccc(O)cc2)C(=O)N1 | 1.15 µM |  | 
18 | COC(=O)[C@@H]1Cc2ccc(cc2)Oc2cc(ccc2OCc2ccccc2)C[C@H](NC(=O)OCc2ccccc2)C(=O)N[C@@H](CC(N)=O)C(=O)N1 |  |  | inhibition [8]: 14%
19 | O=C1CCc2ccc(cc2)Oc2cc(ccc2O)CCNC(=O)[C@H](Cc2ccc(O)cc2)N1 | 11.2 µM |  | 
20 | COC(=O)[C@H]1Cc2ccc(O)c(c2)Oc2ccc(cc2)C[C@H](NC(C)=O)C(=O)N[C@@H](Cc2ccc(O)cc2)C(=O)N1 | 0.89 µM |  | 
21 | O=C1CCc2ccc(O)c(c2)Oc2ccc(cc2)CCNC(=O)CN1 |  | inactive | 
22 | COC(=O)[C@@H]1Cc2ccc(cc2)Oc2cc(ccc2O)C[C@H](NC(=O)OCc2ccccc2)C(=O)N[C@@H](CC(N)=O)C(=O)N1 | 198 µM |  | 
23 | O=C1CCc2cccc(c2)Oc2ccc(cc2)CCNC(=O)CN1 |  | inactive | 
24 | NC(=O)C[C@@H]1NC(=O)[C@@H](N)Cc2ccc(O)c(c2)Oc2ccc(cc2)C[C@@H](C(=O)O)NC1=O |  |  | inhibition [9]: 11%; IC50 [10]: 43.8 µM; IC50 [11]: > 10 µg/mL
25 | N[C@@H](Cc1ccc(Oc2cc(C[C@H](N)C(=O)O)ccc2O)cc1)C(=O)O |  |  | IC50 [11]: > 10 µg/mL; inhibition [12]: 13%; I50 [13]: Not Active
26 | COC(=O)[C@H](Cc1ccc(OCc2ccccc2)c(Oc2ccc(C[C@H](NC(=O)[C@H](CC(N)=O)NC(=O)OC(C)(C)C)C(=O)OC)cc2)c1)NC(=O)OCc1ccccc1 |  | inactive | 
27 | COc1ccc2cc1Oc1ccc(cc1)C[C@@H](C(=O)O)NC(=O)[C@H](CC(N)=O)NC(=O)[C@@H](N)C2 | 149 µM |  | IC50 [11]: > 10 µg/mL
